According to US8338450B2, “Compounds as dipeptidyl peptidase IV (DPP IV) inhibitors” (Lupin Limited, priority 2007, dated 2012):
pIC50: −log10 of the molar value. Counter-ions that a name gives are not always drawn. Like-named read-outs stand apart in the source and are kept apart here.

Key:
human recombinant DPP-IV = target: T1, human recombinant DPP-IV (Homo sapiens, UniProt P27487); test: Inhibition of human recombinant DPP-IV (Gly-Pro-AMC hydrolysis, fluorometric); assay type: biochemical; details: human recombinant DPP-IV, 50 μM Gly-Pro-AMC, 30 min at 30° C.
T1 construct: purchased R&D Systems, USA (or produced in-house)
In short: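 Enzyme (10 ng) was preincubated 15 min at 30° C. with compound (10 and 100 nM screen; 8 concentrations 0.1-1000 nM) in Tris-HCl pH 7.4, NaCl, KCl, BSA. 50 μM Gly-Pro-AMC was added for 30 min at 30° C. and AMC fluorescence was read (ex 360/em 460 nm). Results are given as % inhibition versus vehicle or as IC50.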

plasma DPP-IV = target: T2, plasma DPP-IV (Rattus norvegicus, UniProt P14740); test: Measurement of plasma DPP-IV activity in male Wistar rats after single oral dose; assay type: in vivo; details: p.o.; for inhibition at 3 mg/kg / inhibition at 10 mg/kg: rat, po; for inhibition at 3 mg/kg / Plasma DPP-IV Inhibition (%) 4 h / Plasma DPP-IV Inhibition (%) 6 h / Plasma DPP-IV Inhibition (%) 8 h: 3 mg/kg
T2 construct: from tissue; host or cells: EDTA-plasma of male Wistar rats dosed orally
Procedure: Overnight-fasted male animals were administered either vehicle or single oral doses of compounds. Blood samples were withdrawn from retro-bulbar venous plexus under anesthesia at several time points up to 24 h post-dose. EDTA-plasma was separated and DPP-IV activity was measured using a fluorometric assay. Assays were carried out in 96-well flat-bottom black microwell plates. A typical reaction contained 25 μl plasma, 50 μl of 50 μM substrate (Gly-Pro-AMC) and 25 μl assay buffer (25 mM Tris-HCl, pH 7.4, 140 mM NaCl, 10 mM KCl and 1% BSA) in a total reaction volume of 100 μl. Plasma samples were incubated with the substrate for 30 min at 30° C., following which the fluorescence was measured in a microplate fluorescence redaer (POLARstar Galaxy), with excitation and emission wavelengths set at 360 nm and 460 nm, respectively. Percent inhibition in plasma DPP-IV activity due to compounds was calculated by comparing with plasma from vehicle-treated animals.

C57BL/6J mice = test: Oral glucose tolerance test in male C57BL/6J mice; assay type: in vivo; details: 3 mg/kg, p.o., oral glucose load 5 g/kg 1 h after compound, glucose AUC 0-120 min vs vehicle
Procedure: B. Oral Glucose Tolerance Test in Male C57BU6J Mice
Overnight-fasted male […] mice were challenged 1 h, 4 h and 8 h after either vehicle or compound administration with an oral glucose load of 5 g/kg in three different groups of animals. Blood samples for glucose measurement were obtained by tail bleed at predose, before glucose load and at serial time points after the glucose load, to evaluate the efficacy and duration of effect on glucose tolerance test. […] Improvement in glucose tolerance in compound-treated animals was estimated by comparing with vehicle-treated animals.
Table 3 provides data for the antihyperglycemic activity of selected compounds in C57BL/6J mice, as determined by oral glucose tolerance test.

[1] = 4 h post-dose, read-out: Plasma DPP-IV Inhibition (%) 4 h
[2] = 6 h post-dose, read-out: Plasma DPP-IV Inhibition (%) 6 h
[3] = 8 h post-dose, read-out: Plasma DPP-IV Inhibition (%) 8 h

T1 sequence (P27487 whole entry): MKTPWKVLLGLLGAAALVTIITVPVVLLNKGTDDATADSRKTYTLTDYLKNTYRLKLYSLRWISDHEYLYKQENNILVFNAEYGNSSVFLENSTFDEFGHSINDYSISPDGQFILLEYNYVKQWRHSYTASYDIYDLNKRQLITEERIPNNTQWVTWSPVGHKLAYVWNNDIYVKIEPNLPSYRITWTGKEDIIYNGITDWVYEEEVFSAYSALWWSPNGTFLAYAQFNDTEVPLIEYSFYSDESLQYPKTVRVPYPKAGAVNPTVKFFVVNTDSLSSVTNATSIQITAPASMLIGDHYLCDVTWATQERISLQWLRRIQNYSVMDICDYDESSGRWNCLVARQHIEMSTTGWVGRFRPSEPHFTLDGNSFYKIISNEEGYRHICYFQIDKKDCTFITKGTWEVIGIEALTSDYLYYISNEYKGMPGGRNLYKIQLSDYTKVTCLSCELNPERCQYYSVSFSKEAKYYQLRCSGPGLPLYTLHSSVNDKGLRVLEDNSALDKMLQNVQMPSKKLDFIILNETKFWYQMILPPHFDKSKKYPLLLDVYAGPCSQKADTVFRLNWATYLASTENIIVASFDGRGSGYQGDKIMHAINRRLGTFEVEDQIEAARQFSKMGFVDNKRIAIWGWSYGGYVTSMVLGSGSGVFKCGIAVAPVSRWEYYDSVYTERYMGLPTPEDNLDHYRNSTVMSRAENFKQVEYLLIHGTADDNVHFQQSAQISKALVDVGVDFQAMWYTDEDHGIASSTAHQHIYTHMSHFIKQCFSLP
T2 sequence (P14740 37-767 limits assumed): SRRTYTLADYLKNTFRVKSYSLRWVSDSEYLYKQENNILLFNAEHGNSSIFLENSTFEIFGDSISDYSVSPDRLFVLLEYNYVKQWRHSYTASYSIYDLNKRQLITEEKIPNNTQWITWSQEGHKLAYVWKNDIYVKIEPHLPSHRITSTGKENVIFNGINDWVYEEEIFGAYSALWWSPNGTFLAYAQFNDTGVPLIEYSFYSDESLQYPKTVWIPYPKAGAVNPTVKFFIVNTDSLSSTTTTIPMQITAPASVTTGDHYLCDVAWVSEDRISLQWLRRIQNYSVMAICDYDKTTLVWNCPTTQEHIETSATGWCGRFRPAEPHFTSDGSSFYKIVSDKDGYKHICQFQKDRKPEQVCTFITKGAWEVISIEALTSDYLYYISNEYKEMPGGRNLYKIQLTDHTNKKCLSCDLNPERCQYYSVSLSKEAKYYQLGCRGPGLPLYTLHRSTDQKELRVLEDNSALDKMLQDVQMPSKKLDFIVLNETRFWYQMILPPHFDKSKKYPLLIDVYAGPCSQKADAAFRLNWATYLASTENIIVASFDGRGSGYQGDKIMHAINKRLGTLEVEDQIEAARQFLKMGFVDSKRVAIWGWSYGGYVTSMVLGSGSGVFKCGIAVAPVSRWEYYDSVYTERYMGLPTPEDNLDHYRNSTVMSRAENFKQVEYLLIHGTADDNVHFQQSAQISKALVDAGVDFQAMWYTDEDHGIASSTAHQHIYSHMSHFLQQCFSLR

N#C[C@@H]1C[C@@H]2C[C@@H]2N1C(=O)[C@@H](N)C1CC2CCC(C1)N2C(=O)c1ccnc(F)c1 (stereo partly drawn) [Compound 28, (1S,3S,5S)-2-{(2S)-2-amino-2-[8-(2-fluoropyridine-4-carbonyl)-8-aza-bicyclo[3.2.1]-oct-3-yl]-exo-ethanoyl}-2-azabicyclo[3.1.0]-hexane-3-carbonitrile trifluoro acetic acid salt]
pIC50 (human recombinant DPP-IV): 8.33
inhibition at 3 mg/kg (plasma DPP-IV; [1]): 51%
inhibition at 3 mg/kg (plasma DPP-IV; [2]): 35%
inhibition at 3 mg/kg (plasma DPP-IV; [3]): 28%
inhibition at 10 mg/kg (plasma DPP-IV; [1]): 77%
inhibition at 10 mg/kg (plasma DPP-IV; [2]): 65%
inhibition at 10 mg/kg (plasma DPP-IV; [3]): 53%
Improvement in Glucose Tolerance (%) 1 h (C57BL/6J mice): 54%

N#C[C@@H]1C[C@@H]2C[C@@H]2N1C(=O)[C@@H](N)C1CC2CCC(C1)N2C(=O)c1cnccn1.O=C(O)C(F)(F)F (stereo partly drawn) [Compound 35, (1S,3S,5S)-2-{(2S)-2-Amino-2-[8-(pyrazine-2-carbonyl)-8-aza-bicyclo[3.2.1]oct-3-yl]-exo-ethanoyl}-2-azabicyclo[3.1.0]hexane-3-carbonitrile trifluoroacetic acid salt]
pIC50 (human recombinant DPP-IV): 8.38
Plasma DPP-IV Inhibition (%) 4 h (plasma DPP-IV; 4 h post-dose): 54%
Plasma DPP-IV Inhibition (%) 6 h (plasma DPP-IV; 6 h post-dose): 42%
Plasma DPP-IV Inhibition (%) 8 h (plasma DPP-IV; 8 h post-dose): 33%
Improvement in Glucose Tolerance (%) 1 h (C57BL/6J mice): 46%

C#C[C@H]1CC[C@@H](C#N)N1C(=O)[C@@H](N)C1CC2CCC(C1)N2C(=O)c1ccnc(F)c1 (stereo partly drawn) [Compound 66, (2S,5R)-1-{(2S)-2-Amino-2-[8-(2-fluoropyridin-4-carbonyl)-8-aza-bicyclo[3.2.1]-oct-3-yl]-exo-ethanoyl}-5-ethynyl-pyrrolidin-2-carbonitrile trifluoro acetic acid salt]
pIC50 (human recombinant DPP-IV): 8.08
inhibition at 3 mg/kg (plasma DPP-IV; [1]): 56%
inhibition at 3 mg/kg (plasma DPP-IV; [2]): 38%
inhibition at 3 mg/kg (plasma DPP-IV; [3]): 38%
Improvement in Glucose Tolerance (%) 1 h (C57BL/6J mice): 48%

C#C[C@H]1CC[C@@H](C#N)N1C(=O)[C@@H](N)C1CC2CCC(C1)N2C(=O)c1ccc2c(c1)OCO2.O=C(O)C(F)(F)F (stereo partly drawn) [Compound 67, (2S,5R)-1-{(2S)-2-Amino-2-[8-(benzo[1,3]dioxole-5-carbonyl)-8-aza-bicyclo[3.2.1]oct-3-yl]-exo-ethanoyl}-5-ethynyl-pyrrolidin-2-carbonitrile trifluoroacetic acid salt]
pIC50 (human recombinant DPP-IV): 8.11
Plasma DPP-IV Inhibition (%) 4 h (plasma DPP-IV; 4 h post-dose): 64%
Plasma DPP-IV Inhibition (%) 6 h (plasma DPP-IV; 6 h post-dose): 36%
Plasma DPP-IV Inhibition (%) 8 h (plasma DPP-IV; 8 h post-dose): 23%
Improvement in Glucose Tolerance (%) 1 h (C57BL/6J mice): 50%
